Test results published in BindingDB's records for doi:10.1021/jm00063a003 (Merck Sharp and Dohme Research Laboratories, 1993).

test: Displacement of [3H]mesulergine from pig cortex 5-hydroxytryptamine 1C receptor

| Structure (SMILES) | IC50 |
| --- | --- |
| NCCc1c[nH]c2ccc(Cc3nc(N)no3)cc12 | 3160 nM |
| CC(=O)Nc1ccc(Cc2noc(-c3ccc4[nH]cc(CCN)c4c3)n2)cc1 | 1580 nM |
| COc1ccc(Cc2noc(-c3ccc4[nH]cc(CCN)c4c3)n2)cc1 | 794 nM |
| NCCc1c[nH]c2ccc(-c3nc(C4CC4)no3)cc12 | 1000 nM |
| CN(C)CCc1c[nH]c2ccc(Cc3nc(N)ns3)cc12 | 251 nM |
| NCCc1c[nH]c2ccc(CCc3nc(Cc4ccccc4)no3)cc12 | 794 nM |
| Cc1noc(-c2ccc3[nH]cc(CCN)c3c2)n1 | 1260 nM |
| NCCc1c[nH]c2ccc(-c3nc(Cc4ccccc4)no3)cc12 | 3980 nM |
| Cc1noc(Cc2ccc3[nH]cc(CCN(C)C)c3c2)n1 | 1000 nM |
| Cc1noc(Cc2ccc3[nH]cc(CCN)c3c2)n1 | 1260 nM |
| CN(C)CCc1c[nH]c2ccc(CCc3nc(N)no3)cc12 | 1000 nM |
| CS(=O)(=O)Nc1ccc(Cc2noc(-c3ccc4[nH]cc(CCN)c4c3)n2)cc1 [L-694247] | 316 nM |
